Patent US20180171288A1, “METHODS OF TREATING CANCER” (THE UNIVERSITY OF ROCHESTER, priority 2016, published 2018)
Values joined by “and” are separate entries in the source; they are usually repeats but may differ in a detail not shown here. Equal entries are not always repeated. “Also recorded” adds a separate entry of the source. Where two headings read alike, the source gives them in different places. Values belong to the molecule of their own block, whether it stands above or below them.

What was measured:
[1] = tested on: human TMXR MCF7 cells; assay: TMXR MCF7 mammary fat pad xenograft in NSG mice; conditions: mouse, in vivo
[2] = tested on: GBM cells; assay: Protein levels of direct and indirect c-Cbl targets in GBM cells; format: cell-based, human
Experimental: Alternatively, restoration of c-Cbl function can be determined by analysis of changes in the levels of direct targets of c-Cbl, with changes in the levels of two or more c-Cbl targets caused by the application of a single therapeutic intervention being an indicator of c-Cbl activation. In such analyses, cells are treated with saline, with the CRA or DCLTD by itself, with a pro-oxidant or with the combination of a CRA or a DCLTD with a pro-oxidant. The ability of treatment with the combined agents to cause greater decreases in the levels of proteins that are direct targets of c-Cbl provides a surrogate indicator of c-Cbl activation.
Six of the 10 compounds remaining were chosen to determine whether they restored the ability of oxidation of cells to cause decreases in levels of a c-Cbl target, an outcome that occurs when c-Cbl is activated via the redox/Fyn/c-Cbl pathway. These compounds indeed restored the ability of pro-oxidative stimulation to cause decreases in the levels of the epidermal growth factor receptor (EGFR), which is a c-Cbl target known to be important in growth of many cancer cells and that is of interest as a potential target in cancer treatment.
There are two groups of such proteins, ones in which the connection to a c-Cbl target can be reasonably surmised based on prior research and ones for which the linkage to c-Cbl is currently unknown. Non-limiting examples of the first category of outcomes are activities of Erk1/2 and Akt, which both are downstream of receptor tyrosine kinases that are targets of c-Cbl. Further non-limiting examples are activity levels of NF-κB and serum response element (SRE), which are activated downstream of Akt and […], respectively.

[3] = tested on: tamoxifen-resistant luminal breast cancer cells
[4] = tested on: c-Cbl; assay: c-Cbl phosphorylation in GBM cells; format: cell-based, human
Experimental: In this approach, cancer cells are treated with a CRA or a DCLTD in the presence or absence of an agent that causes cells to become more oxidized. The status of c-Cbl phosphorylation may be analyzed by any of a number of means well-known to those skilled in the art, including Western blot analysis of cell lysates with an antibody that identifies phosphorylated c-Cbl, for instance at tyrosine residues Y731 or Y771, analysis of cell labeling with such antibodies which may be conjugated with a fluorescent probe that makes them suitable for analysis by fluorescence microscopy, immunohistochemistry or by automated fluorescence analysis of some form, or by CYTOF mass cytometry analysis. The change in phosphorylation status is compared with that seen in untreated cells, in cells treated with the CRA or DCLTD by itself, or that treated with a pro-oxidant by itself.
An example of the ability of DCLTDs to restore the ability of TMX to enhance phosphorylation of c-Cbl via the redox/Fyn/c-Cbl pathway is shown in FIG. 8. […] As predicted if activation was RFC pathway-mediated, such activation was inhibited by N-acetyl-L-cysteine (NAC, a glutathione pro-drug and anti-oxidant), thus confirming that TMX-induced activation of c-Cbl was dependent on the pro-oxidative activities of TMX.

[5] = tested on: TMXR MCF-7 cells; assay: Growth and killing of TMXR MCF-7 cells in vitro; format: cell-based, human; conditions: for vulnerability / resistance of TMXR MCF-7 cells to 4^OH-CPP: 3 μM MPT, 5 μM TMX, 5 μM 4^OH-CPP
[6] = tested on: complex between c-Cbl and Cool-1/βpix; assay: Complex between c-Cbl and Cool-1/βpix in GBM cells (immunoprecipitation, immunoblot); format: cell-based, human
[7] = tested on: OPCs isolated from the developing human central nervous system; assay: Sensitivity of human OPCs to anticancer agents; format: cell-based
Excerpt: This is a particularly difficult problem to solve in the context of cells of the central nervous system, as many of these cells are inherently more sensitive to anticancer agents than are cancer cells themselves. Previous studies have shown that one of the cell types of the brain that is most sensitive to the adverse effects of multiple chemotherapeutic agents are the oligodendrocyte progenitor cells (OPCs) that give rise to the myelin-forming oligodendrocytes of the central nervous system.

[8] = tested on: Cool-1/βpix; assay: Cool-1/βpix Serine340 phosphorylation (antibody blot / immunostaining); format: cell-based, human; conditions: anti-phospho-Cool1/βpix antibody
[9] = tested on: melanoma cells; assay: Sensitivity of melanoma cells to TMX; format: cell-based
[10] = tested on: GBM cells; assay: Sensitivity of GBM cells to TMX / cell killing; format: cell-based, human
Excerpt: The cell lines studied represent a range of glioblastoma subtypes and genotypes and generate human glioblastomas when transplanted into the CNS of immune-deficient mice.

[11] = tested on: complex between c-Cbl and Cool-1/βpix; conditions: TMX-resistant luminal breast cancer cells
[12] = tested on: tumor growth; conditions: in combination with TMX; cited from earlier work
[13] = tested on: hGBM10; assay: Intracranial xenograft, hGBM10; format: in vivo, NSG mice
[14] = tested on: hGBM27; assay: Intracranial xenograft, hGBM27; format: in vivo, NSG mice
[15] = tested on: human GBM cells; assay: Established intracranial human GBM xenografts in NSG mice (cohorts together)
[16] = tested on: MDA-MB-231 cells; assay: Sensitivity of MDA-MB-231 BLBC cells to TMX; format: cell-based
Excerpt: Sertraline and mefloquine both were identified in screens on MDA-MB-231 BLBC cells, in which c-Cbl is inhibited in a Cdc42-dependent manner.

[17] = tested on: GBM TICs; assay: Tumor generation by GBM cells treated in vitro and transplanted intra-cranially in NSG mice; format: in vivo; conditions: cells exposed 72 hrs in vitro, four GBM cell lines
Excerpt: After treatment, 500,000 live cells were transplanted intra-cranially in NSG mice. […] In contrast with the effects of MPT+TMX in TICs, treatment with temozolomide (TMZ, the frontline treatment for glioblastoma), had no apparent effects on TICs (FIG. 12D).
Unexpectedly, in light of the partial reduction in levels of Cool-1/βpix, and the similarly partial reduction in levels of proteins important in TIC biology, treatment with DCLTD-based therapies eliminates TICs. […] After treatment, 500,000 live cells were transplanted intra-cranially in NSG mice. […] Thus, treatment with temozolomide had little apparent effect on TIC elimination, in agreement with patient data indicating rapid recurrence of tumor even during the period of temozolomide treatment.
Exposure of GBM cells to the combination of MPT+TMX led to the apparently complete elimination of GBM cancer stem cells. GBM cells from four different cell lines were exposed to MPT+TMX combination for 72 hrs in vitro, after which 500,000 live cells were transplanted intra-cranially in NSG mice.

[18] = tested on: parental MCF-7 cells; format: cell-based, human

Molecule: O=P1(N(CCCl)CCCl)NCCCO1 (stereo not shown) [CPP, cyclophosphamide]
tumor growth [1]: already have initiated tumor growth midway through treatment

sensitivity of OPCs to TMX [7]: did not increase the sensitivity
Molecule: CNCCCC12CCC(c3ccccc31)c1ccccc12 [MPT, maprotiline]
levels of Cool-1/βpix [2]: decreases levels of the inhibitory protein Cool-1/βpix
levels of the c-Cbl targets EGFR, Notch-1, β-catenin and PDGFRα [2]: decreases were less marked
tamoxifen sensitivity of tamoxifen-resistant luminal breast cancer cells [3]: increase in tamoxifen sensitivity
c-Cbl phosphorylation [4]: enabled TMX-induced c-Cbl phosphorylation
vulnerability / resistance of TMXR MCF-7 cells to 4^OH-CPP [5]: only slightly increased vulnerability to 4^OH-CPP
levels of the complex between c-Cbl and Cool-1/βpix [6]: virtually complete elimination of complexes; also recorded: marked reductions in levels of the complex
sensitivity of OPCs to temozolomide [7]: does not increase the sensitivity of OPCs to temozolomide
Cool-1/βpix phosphorylation on Serine340 [8]: decreases the level of staining; also recorded: causes a decrease in levels of Cool-1/βpix phosphorylation
sensitivity of melanoma cells to TMX [9]: increased the sensitivity of melanoma cells to TMX
sensitivity of GBM cells to TMX [10]: enhanced the sensitivity of GBM cells; also recorded: increase in tamoxifen sensitivity
levels of the complex between c-Cbl and Cool-1/βpix [11]: causes a decrease in levels of the complex

Molecule: ML141
suppression of tumor growth [12]: only provided partial suppression of tumor growth

Molecule: OCCNC1CCCc2c1[nH]c1ccc(-c3ccccc3)cc21 (stereo not shown) [CASIN]
sensitivity of OPCs to TMX [7]: does not increase the vulnerability of OPCs to TMX

Molecule: Cc1cccc(CN2CCN(C(c3ccccc3)c3ccc(Cl)cc3)CC2)c1 (stereo not shown) [meclizine]
sensitivity of GBM cells to TMX [10]: increased the vulnerabilty of GBM cells to TMX

Molecule: CN(C)CCC=C1c2ccccc2CCc2ccccc21 [amitryptiline]
sensitivity of GBM cells to TMX [10]: none of them were as effective as MPT

Molecule: Cn1nnc2c(C(N)=O)ncn2c1=O [TMZ, temozolomide]
increase in tumor size at 12 weeks ([13]; hGBM10): > 500 fold and 500 fold
median survival ([13]; hGBM10 cohort): 12 weeks
week of treatment in which tumor size began to increase ([14]; hGBM27): 4 week
increase in tumor size (photon flux) at 12 weeks ([14]; hGBM27, 3 weeks after cessation of treatment): > 5000 fold
increase in tumor size (photon flux) at the end of 9 weeks of treatment ([14]; hGBM27, oral gavage 5 days on/2 days off): > 100 fold
median survival ([14]; hGBM27 cohort): 11.5 weeks
increase in lifespan over saline-treated mice ([15]; median 9 week survival of saline-treated mice): 30%
time lived after treatment was stopped ([15]; mouse, in vivo): 4-5 weeks and 2-6 weeks

Molecule: CN[C@H]1CC[C@@H](c2ccc(Cl)c(Cl)c2)c2ccccc21 [sertraline]
sensitivity of MDA-MB-231 BLBC cells to TMX [16]: increased the sensitivity of these cells to TMX; also recorded: increase in tamoxifen sensitivity
sensitivity of OPCs to TMX [7]: does not increase sensitivity of OPCs to TMX

Molecule: CC/C(=C(\c1ccccc1)c1ccc(OCCN(C)C)cc1)c1ccccc1 [TMX, tamoxifen]
levels of FoxM1, Sox2, HSF-1 and HSP70 [2]: does not have the above effects
tumor generation after transplant of 500,000 live treated cells [17]: generated tumors within three weeks
c-Cbl phosphorylation [4]: alone was not sufficient to activate c-Cbl
cell division in the presence of TMX ([5]; 1 μM TMX, TMXR cells): continue to divide
vulnerability / resistance of TMXR MCF-7 cells to 4^OH-CPP [5]: only slightly increased vulnerability to 4^OH-CPP
effect on cell division and survival [18]: cytostatic but not lethal

Molecule: CNCCC(Oc1ccc(C(F)(F)F)cc1)c1ccccc1 (stereo not shown) [fluoxetine]
sensitivity of GBM cells to TMX [10]: none of them were as effective as MPT

Molecule: OC(c1cc(C(F)(F)F)nc2c(C(F)(F)F)cccc12)C1CCCCN1 (stereo not shown) [mefloquine]
sensitivity of melanoma cells to TMX [9]: increased the sensitivity of melanoma cells to TMX

Molecule: C=C(NC(=O)C(=C)NC(=O)c1csc(C2=N[C@@H]3c4csc(n4)[C@H]4NC(=O)c5csc(n5)[C@H]([C@](C)(O)[C@@H](C)O)NC(=O)[C@H]5CSC(=N5)/C(=C/C)NC(=O)[C@H]([C@@H](C)O)NC(=O)c5csc(n5)[C@]3(CC2)NC(=O)[C@H](C)NC(=O)C(=C)NC(=O)[C@H](C)NC(=O)[C@H]([C@@H](C)CC)N[C@@H]2C=Cc3c([C@H](C)O)cc(nc3[C@H]2O)C(=O)O[C@@H]4C)n1)C(N)=O [thiostrepton]
c-Cbl phosphorylation [4]: not associated with a notable increase in c-Cbl phosphorylation
sensitivity of GBM cells to TMX [10]: does not increase sensitivity to TMX as potently as does MPT
